Laboratory results taken from US9521845B2, “Beta-lactones as antibacterial agents” (LUDWIG-MAXIMILIANS-UNIVERSITÄT-MÜNCHEN, priority 2008, dated 2016).

Assays:
[1] = system: extracellular DNase of S. aureus; assay: DNase assay using DNA containing agar plates; format: cell-based, Staphylococcus aureus; conditions: 250 nmol
Description: FIG. 4: Agar plate-based virulence assays.
A dose down in FIG. 5 indicates the different potencies of structurally diverse ClpP inhibitors for E2, G2 and D3. […] Extracellular DNase also is part of the S. aureus virulence factors. Its purpose is to destroy the hosts DNA and provide a nutritional source for S. aureus.

[2] = system: proteolysis abilities of Staphylococcus aureus; assay: Milk agar plate-based proteolysis assay; format: cell-based
Experimental: FIG. 6: Milk agar plate-based assay illustrating that beta-lactones have an effect on the proteolysis abilities of Staphylococcus aureus. 2.5 μL of S. aureus LB dilution (OD600=0.13 corresponding to approx. 1×10^8 cfu/ml) and 2.5 μL DMSO/beta-lactone in DMSO were applied on Whatman Cards placed on 1% skim milk LB agar plates and incubated at 37° C. over night. A) Direct comparison of beta-lactones as shown in FIG. 2 at a total amount of 250 nmol applied on Whatman Cards. B) Dose down with beta-lactones D3, E2 and G2 at applied concentrations of 100 mM, 50 mM, 25 mM, 12.5 mM, 6.25 mM and 0 mM (corresponding to total amounts of 250 nmol, 125 nmol, 62.5 nmol, 31.3 nmol, 15.6 nmol and 0 nmol, respectively). C) Proteolysis zone size plotted against the total amount of the respective beta-lactone.
2.5 μL of S. aureus LB dilution (OD600=0.13 corresponding to approx. 1×10^8 cfu/ml) and 2.5 μL DMSO/beta-lactone in DMSO were applied on Whatman Cards placed on 1% skim milk LB agar plates and incubated at 37° C. over night. FIG. 6A directly compares the β-lactones at a total amount of 250 nmol applied on Whatman Cards. […] For D3 and E2 almost no proteolysis is observed down to a total amount of 125 nmol of the respective beta-lactone. FIG. 6C illustrates that the proteolysis zone size plotted against the total amount of beta-lactone visualizes the strong effects particularly of D3 and E2.

[3] = molecular target: T1, Aldehyde dehydrogenase B (ADB) (Escherichia coli, UniProt P37685); assay: ABPP labeling of E. coli cytosol; format: binding; conditions: 100 nM probe concentration, no other off targets
T1 construct: endogenous in cells; host or cells: Escherichia coli K12 lysate, cytosol fraction
Experimental: To estimate the strength of probe interactions with proteins in the proteome, we compared the reactivity profiles of selected beta-lactones across a broad concentration range from 10 μM to 5 nM.
Proteome samples were adjusted to a final concentration of 1 mg protein/mL by dilution in PBS prior to probe labeling. Experiments for visualization by 1D SDS-PAGE were carried out in 43 μL total volume and those for affinity enrichment in 1892 μL total volume, such that once CC reagents were added, the total reaction volume was 50 μL and 2 mL, respectively. Reactions were initiated by addition of the probe and allowed to incubate for 60 min at room temperature. For heat controls the proteome was denatured with 1 μL of 43% SDS at 95° C. for 6 min and cooled to room temperature before the probe was applied. Following incubation, reporter tagged-azide reagents (13 μM rhodamine-azide for analytical or 20 μM rhodamine-biotin-azide for preparative scale) were added followed by 1 mM TCEP and 100 μM ligand. Samples were gently vortexed and the cycloaddition initiated by the addition of 1 mM CuSO4. The reactions were incubated at room temperature for 1 h (Speers, J. Amer. Chem. Soc. 125 (2003), 4686).

ClpP = molecular target: T2, ClpP (Staphylococcus aureus, UniProt Q2G036); assay: In vivo labelling of the proteome of S. aureus; format: cell-based
T2 construct: endogenous in cells
T2 sequence (Q2G036 1-195): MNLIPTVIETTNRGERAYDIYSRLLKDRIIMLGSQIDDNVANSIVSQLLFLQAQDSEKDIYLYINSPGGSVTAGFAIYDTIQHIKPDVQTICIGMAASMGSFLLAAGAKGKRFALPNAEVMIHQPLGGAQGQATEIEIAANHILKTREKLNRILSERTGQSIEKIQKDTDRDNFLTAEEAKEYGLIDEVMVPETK
Experimental: FIG. 16: In vivo labelling of the proteome of S. aureus with beta-lactones. Probes were applied at a certain concentration to approx. 2×10^9 cfu of stationary phase S. aureus in 100 μL PBS and incubated for 2 h. Excess probe (beta-lactone) was removed by washing the cells 3× with 1 mL PBS each. Then the cells were lysed by sonication. ClpP has been identified by mass spectrometry from preparative SDS gels after workup and tryptic digestion. B) In vivo dose down of beta-lactones D3, E2 and G2 with S. aureus indicates strong labeling by beta-lactone D3. C) Increase of selectivity at 8.0 μM concentration.
This example relates to the in vivo labelling of the proteome of S. aureus with β-lactones. The beta-lactones were applied at a certain concentration to approx. 2×10^9 cfu of stationary phase S. aureus in 100 μL PBS and incubated for 2 h. Excess beta-lactone was removed by washing the cells 3× with 1 mL PBS each. Then the cells were lysed by sonication. […] ClpP has been identified by mass spectrometry from preparative SDS gels after workup and tryptic digestion.

[4] = system: LLO haemolytic activity of L. monocytogenes EGDe; assay: LLO haemolytic activity testing of culture supernatants; format: cell-based, Listeria monocytogenes EGDe; conditions: sheep red blood cells
Experimental: Overnight cultures of L. monocytogenes EGDe were harvested by centrifugation and resuspended in an equal volume of fresh BHB medium. In 1.5 mL Eppendorf tubes, 400 μL of BHB medium were inoculated with 4 μL of the resuspended Listeria culture and 4 μL of a corresponding beta-lactone stock in DMSO. The final concentrations were 800 μM, 400 μM, 200 μM, 100 μM and DMSO as control. The amount of DMSO in all tests was 1% of the medium. After mixing, the test tubes were incubated under continuous shaking at 200 rpm at 37° C. for 16 h. Then, cells were centrifuged and the supernatants filtered sterile by passing them through a 0.2 μm pore size filter. Haemolytic activity of LLO in the culture supernatants was quantitatively investigated according to a method described in J. Food Safety 1998, 18: 197-203 (incorporated herein by reference) with some modifications. In Nunclon™ 96-well plates with round shaped wells 100 μL of serial dilutions of the supernatants in PBS were added per well and incubated with 100 μL of 3% SRBC (sheep red blood cells) resuspended in PBS for 15 min at 37° C. under gentle shaking. The 96-well plates were centrifuged at 600 rpm for 5 min and the minimum dilution at which intact blood cells began to form a pellet was recorded. Controls with no lactone were set 100%. Buffer only controls and pure BHB medium yielded no haemolysis.

T1 sequence (P37685 whole entry): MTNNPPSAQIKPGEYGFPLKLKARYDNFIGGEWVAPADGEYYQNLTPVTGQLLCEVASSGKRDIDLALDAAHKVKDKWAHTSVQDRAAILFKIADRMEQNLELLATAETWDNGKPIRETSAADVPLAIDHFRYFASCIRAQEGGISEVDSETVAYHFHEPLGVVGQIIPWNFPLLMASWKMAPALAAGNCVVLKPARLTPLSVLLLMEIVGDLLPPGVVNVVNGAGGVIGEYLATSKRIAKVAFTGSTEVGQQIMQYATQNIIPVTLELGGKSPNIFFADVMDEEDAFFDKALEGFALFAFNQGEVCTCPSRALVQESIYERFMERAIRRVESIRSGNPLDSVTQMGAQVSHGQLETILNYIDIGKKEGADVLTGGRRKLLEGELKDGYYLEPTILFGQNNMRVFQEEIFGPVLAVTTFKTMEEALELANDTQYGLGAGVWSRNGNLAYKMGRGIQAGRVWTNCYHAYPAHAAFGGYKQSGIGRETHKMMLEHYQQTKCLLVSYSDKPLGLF

## C#CCCCC1OC(=O)C1CCCCCCCC=C (stereo not drawn) [D3, trans-3-(8-nonen-1-yl)-4-(4-pentyn-1-yl)oxetan-2-one]
[1]
  amount of extracellular DNase: effect
[2]; dose down 250-15.6 nmol
  total amount down to which almost no proteolysis is observed: 125 nmol
[2]; total amount of 250 nmol applied on Whatman Cards, 1% skim milk LB agar, 37° C. over night
  proteolytic activity of S. aureus: strongly reduce
[3]
  ADB labeling preference: strong preference
ClpP; 8.0 μM concentration
  ClpP labelling: still labelled
  off-targets (selectivity): almost no off-targets are visible
ClpP; stationary phase S. aureus, 2 h, dose down of D3, E2, G2
  ClpP labelling in in vivo dose down: strong labelling
[4]; Listeria monocytogenes, Erythrocyte, cultures grown 16 h with lactone, read-out: EC50 of reduction of LLO haemolytic activity
  EC50: 100 µM
[4]; cultures grown 16 h with 100-800 μM lactone
  reduction (inhibition) of haemolytic activity: 80%
